In patent publication US6528494B2 (priority 1996, dated 2003):
Structures can show the parent of a compound that is named as a salt.

Assays:
Format in all cases: cell-based
adenosine 2a receptor = adenosine 2a receptor (Homo sapiens, UniProt P29274); assay: Agonist activity against adenosine 2a receptor (CHO cells, cAMP/SPAP reporter); settings: CHO cells transfected with human receptor, basal cAMP via SPAP, mean of all the versions tested
Method: (§1) (1) Agonist activity against adenosine 2a, adenosine 1 and adenosine 3 receptor subtypes.
(§2) The effect of test compounds was determined by their effects on basal levels of cAMP (A2a) or on forskolin-enhanced cAMP (A1 and A3) as reflected by changes in levels of SPAP.

adenosine 3 receptor = molecular target: T1, adenosine 3 receptor (Homo sapiens, UniProt P0DMS8); assay: Agonist activity against adenosine 3 receptor (CHO cells, forskolin-enhanced cAMP/SPAP reporter); settings: CHO cells transfected with human receptor, forskolin-enhanced cAMP via SPAP, mean of all the versions tested
T1 sequence (P0DMS8 1-318): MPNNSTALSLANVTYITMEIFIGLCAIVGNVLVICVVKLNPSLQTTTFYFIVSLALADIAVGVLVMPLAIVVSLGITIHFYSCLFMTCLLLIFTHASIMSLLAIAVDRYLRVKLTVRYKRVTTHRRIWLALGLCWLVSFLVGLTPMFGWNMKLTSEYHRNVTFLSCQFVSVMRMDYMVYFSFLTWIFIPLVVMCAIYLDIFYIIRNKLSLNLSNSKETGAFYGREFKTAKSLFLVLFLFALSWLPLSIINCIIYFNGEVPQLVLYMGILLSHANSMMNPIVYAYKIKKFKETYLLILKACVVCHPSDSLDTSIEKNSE
Method: as §1, §2

adenosine 1 receptor = molecular target: T2, adenosine 1 receptor (Homo sapiens, UniProt P30542); assay: Agonist activity against adenosine 1 receptor (CHO cells, forskolin-enhanced cAMP/SPAP reporter); settings: CHO cells transfected with human receptor, forskolin-enhanced cAMP via SPAP, mean of all the versions tested
T2 sequence (P30542 1-326): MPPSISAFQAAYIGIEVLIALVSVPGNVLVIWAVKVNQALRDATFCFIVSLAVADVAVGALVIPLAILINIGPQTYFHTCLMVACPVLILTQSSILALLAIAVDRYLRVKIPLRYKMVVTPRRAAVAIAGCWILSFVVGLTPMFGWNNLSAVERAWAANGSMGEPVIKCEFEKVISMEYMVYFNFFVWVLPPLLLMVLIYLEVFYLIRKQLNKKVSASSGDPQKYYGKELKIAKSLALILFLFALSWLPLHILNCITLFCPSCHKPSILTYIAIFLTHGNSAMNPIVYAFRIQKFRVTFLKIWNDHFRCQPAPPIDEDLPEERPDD
Method: as §1, §2

Chain of adenosine 2a receptor (P29274 whole entry): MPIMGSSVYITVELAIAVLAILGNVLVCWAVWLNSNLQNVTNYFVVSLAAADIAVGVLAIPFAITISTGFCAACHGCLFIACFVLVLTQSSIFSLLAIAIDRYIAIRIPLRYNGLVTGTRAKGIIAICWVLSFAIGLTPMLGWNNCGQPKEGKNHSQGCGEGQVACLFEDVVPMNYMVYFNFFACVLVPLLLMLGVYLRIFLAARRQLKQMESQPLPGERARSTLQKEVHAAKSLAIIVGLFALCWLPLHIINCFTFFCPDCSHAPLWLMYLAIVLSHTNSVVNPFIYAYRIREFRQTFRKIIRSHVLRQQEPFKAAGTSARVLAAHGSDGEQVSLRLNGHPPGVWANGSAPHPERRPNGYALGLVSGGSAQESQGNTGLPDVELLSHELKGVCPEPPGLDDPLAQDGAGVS

Row | Molecule | A2a EC50 as a ratio of that of NECA (adenosine 2a receptor) | A3 EC50 as a ratio of that of NECA (adenosine 3 receptor) | A1 EC50 as a ratio of that of NECA (adenosine 1 receptor) | A2a EC50 as a ratio of that of NECA (adenosine 2a receptor; Dihydrochloride) | A3 EC50 as a ratio of that of NECA (adenosine 3 receptor; Dihydrochloride) | A1 EC50 as a ratio of that of NECA (adenosine 1 receptor; Dihydrochloride)
1 | Cn1cnc(CCNc2nc(NCC(c3ccccc3)c3ccccc3)c3ncn([C@@H]4O[C@H](c5nnn(C)n5)[C@@H](O)[C@H]4O)c3n2)c1.O=CO [Example 27, (2R,3R,4S,5R)-2-{6-(2,2-Diphenyl-ethylamino)-2-[2-(1-methyl-1H-imidazol-4-yl)-ethylamino]-purin-9-yl}-5-(2-methyl-2H-tetrazol-5-yl)-tetrahydro-furan-3,4-diol Formate] | 0.08 | >286 | 449.7 |  |  | 
2 | (2R,3R,4S,5R)-2-[6-Cyclopentylamino-2-(2-pyrrolidin-1-yl-ethylamino)-purin-9-yl]-5-(2-methyl-2H-tetrazol-5-yl)-tetrahydro-furan-3,4-diol bis(Formate) [Example 112] | 2.19 | >315 | 472.30 |  |  | 
3 | CCn1nnc(C2OC(n3cnc4c(NC5CCCC5)nc(NCCN5CCCCC5)nc43)C(O)C2O)n1.O=CO.O=CO [Example 104, (2R,3R,4S,5R)-2-[6-Cyclopentylamino-2-(2-piperidin-1-yl-ethylamino)-purin-9-yl]-5-(2-ethyl-2H-tetrazol-5-yl)-tetrahydro-furan-3,4-diol bis(Formate)] | 4.04 | >235 | 113.40 |  |  | 
4 | Cn1nnc(C2OC(n3cnc4c(NCC(c5ccccc5)c5ccccc5)nc(NC(CO)Cc5ccccc5)nc43)C(O)C2O)n1 [Example 95, (2R,3R,4S,5R)-2-[6-(2,2-Diphenyl-ethylamino)-2-(1S-hydroxymethyl-2-phenyl-ethylamino)-purin-9-yl]-5-(2-methyl-2H-tetrazol-5-yl)-tetrahydro-furan-3,4-diol Formate] | 2.10 | >153 | 4687.00 |  |  | 
5 | CCn1nnc(C2OC(n3cnc4c(NCCc5ccccc5)nc(NC(CO)Cc5ccccc5)nc43)C(O)C2O)n1 [Example 79, (2R,3S,4R,5R)-2-(2-Ethyl-2H-tetrazol-5-yl)-5-[2-(1S-hydroxymethyl-2-phenyl-ethylamino)-6-phenethylamino-purin-9-yl]-tetrahydro-furan-3,4-diol Formate] | 2.40 | >155 | 165.30 |  |  | 
6 | Cn1nnc([C@H]2O[C@@H](n3cnc4c(NCC(c5ccccc5)c5ccccc5)nc(N[C@@H]5CCC[C@H]5O)nc43)[C@H](O)[C@@H]2O)n1.O=CO [Example 96, (2R,3R,4S,5R)-2-[6-(2,2-Diphenyl-ethylamino)-2-(2R-hydroxy-(R)-cyclopentylamino)-purin-9-yl]-5-(2-methyl-2H-tetrazol-5-yl)-tetrahydro-furan-3,4-diol Formate] | 2.14 | >153 | 5177.00 |  |  | 
7 | Cn1cnc(CCNc2nc(NCc3cccc(I)c3)c3ncn([C@@H]4O[C@H](c5nnn(C)n5)[C@@H](O)[C@H]4O)c3n2)c1.O=CO [Example 29, (2R,3R,4S,5R)-2-{6-(3-Iodo-benzylamino)-2-[2-(1-methyl-1H-imidazol-4-yl)-ethylamino]-purin-9-yl}-5-(2-methyl-2H-tetrazol-5-yl)-tetrahydro-furan-3,4-diol Formate] | 0.87 | >105 | >3561 |  |  | 
8 | CCn1nnc([C@H]2O[C@@H](n3cnc4c(NCC(c5ccccc5)c5ccccc5)nc(NCCc5cccc(N)n5)nc43)[C@H](O)[C@@H]2O)n1.O=C(O)C(F)(F)F.O=C(O)C(F)(F)F.O=C(O)C(F)(F)F [Example 22, (2R,3R,4S,5R)-2-[2-[2-(6-Amino-pyridin-2-yl)-ethylamino]-6-(2,2-diphenyl-ethylamino)-purin-9-yl]-5-(2-ethyl-2H-tetrazol-5-yl)-tetrahydro-furan-3,4-diol tris(Trifluoroacetate)] | 0.67 | >188 | 86.4 |  |  | 
9 | CCn1nnc([C@H]2O[C@@H](n3cnc4c(N)nc(NC5CCCC5)nc43)[C@H](O)[C@@H]2O)n1.O=C(O)C(F)(F)F.O=C(O)C(F)(F)F [Example 12] | 0.57 | >243 | 31.2 |  |  | 
10 | CCC(CC)Nc1nc(NC2CCC(N)CC2)nc2c1ncn2C1OC(c2nnn(C)n2)C(O)C1O.O=CO.O=CO [Example 87, (2R,3R,4S,5R)-2-[2-(trans-4-Amino-cyclohexylamino)-6-(1-ethyl-propylamino)-purin-9-yl]-5-(2-methyl-2H-tetrazol-5-yl)-tetrahydro-furan-3,4-diol Diformate] | 1.61 | >320 | 348.11 |  |  | 
11 | CC(C)n1nnc([C@H]2O[C@@H](n3cnc4c(NCc5ccccc5)nc(NCCc5cn(C)cn5)nc43)[C@H](O)[C@@H]2O)n1.O=CO [Example 58, (2R,3R,4S,5R)-2-{6-Benzylamino-2-[2-(1-methyl-1H-imidazol-4-yl)-ethylamino]-purin-9-yl}-5-(2-isopropyl-2H-tetrazol-5-yl)-tetrahydro-furan-3,4-diol Formate] | 6.07 | >515 | 1119.00 |  |  | 
12 | CCn1nnc([C@H]2O[C@@H](n3cnc4c(NCc5ccccc5)nc(NCCc5cn(C)cn5)nc43)[C@H](O)[C@@H]2O)n1 [Example 5, (2R,3R,4S,5R)-2-{6-Benzylamino-2-[2-(1-methyl-1H-imidazol-4-yl)-ethylamino]-purin-9-yl}-5-(2-ethyl-2H-tetrazol-5-yl)-tetrahydro-furan-3,4-diol] | 0.76 | >181 | 700.4 |  |  | 
13 | CC(=O)O.CC(=O)O.CCn1nnc(C2OC(n3cnc4c(NCCN5CCOCC5)nc(NCCc5cn(C)cn5)nc43)C(O)C2O)n1 [Example 50, (2R,3S,4R,5R)-2-(2-Ethyl-2H-tetrazol-5-yl)-5-[2-[2-(1-methyl-1H-imidazol-4-yl)-ethylamino]-6-(2-morpholin-4-yl-ethylamino)-purin-9-yl]-tetrahydro-furan-3,4-diol Diacetate] | 1.48 | >86 | 2443.00 |  |  | 
14 | Cn1cnc(CCNc2nc(NCCc3ccccc3)c3ncn([C@@H]4O[C@H](c5nnn(C)n5)[C@@H](O)[C@H]4O)c3n2)c1.O=CO [Example 34, (2R,3R,4S,5R)-2-{2-[2-(1-Methyl-1H-imidazol-4-yl)-ethylamino]-6-phenethylamino-purin-9-yl}-5-(2-methyl-2H-tetrazol-5-yl)-tetrahydro-furan-3,4-diol Formate] | 0.13 | >173 | 1316 |  |  | 
15 | Cn1nnc(C2OC(n3cnc4c(NCC(c5ccccc5)c5ccccc5)nc(NCCc5ccccn5)nc43)C(O)C2O)n1.O=CO.O=CO (stereo not drawn) [Example 97] | 2.34 | >240 | 1413.00 |  |  | 
16 | CCn1nnc(C2OC(n3cnc4c(NC5CCCC5)nc(NCCc5cn(C)cn5)nc43)C(O)C2O)n1 [Example 7, (2R,3R,4S,5R)-(2-{6-Cyclopentylamino-2-[2-(1-methyl-1H-imidazol-4-yl)-ethylamino]-purin-9-yl}-5-(2-ethyl-2H-tetrazol-5-yl)-tetrahydro-furan-3,4-diol Acetate] | 0.12 | >161 | 26.2 |  |  | 
17 | CCn1nnc(C2OC(n3cnc4c(NCC(c5ccccc5)c5ccccc5)nc(NC5CCNC5)nc43)C(O)C2O)n1 [Example 21, (2R,3R,4S,5R)-2-[6-(2,2-Diphenyl-ethylamino)-2-(pyrrolidin-3R-ylamino)-purin-9-yl]-5-(2-ethyl-2H-tetrazol-5-yl)-tetrahydro-furan-3,4-diol Dihydrochloride] |  |  |  | 0.69 | >442 | 237.9
18 | CCn1nnc(C2OC(n3cnc4c(N)nc(NCCc5ccc(S(N)(=O)=O)cc5)nc43)C(O)C2O)n1 (stereo not drawn) [Example 17, 4-(2-{6-Amino-9-[5R-(2-ethyl-2H-tetrazol-5-yl)-3R,4S-Dihydroxy-tetrahydro-furan-2R-yl]-9H-purin-2-ylamino}-ethyl)-benzenesulfonamide Formate] | 0.69 | >346 | 247.6 |  |  | 
